The text below walks through data of patent US12553889B2, “Small molecules targeting the intrinsically disordered structural ensemble of α-synuclein protect against diverse α-synuclein mediated dysfunctions” (The Regents of the University of California, priority 2019, dated 2026).

Entries after “also recorded” stand apart in the source; their conditions may differ.

Type in all cases: cell-based
Data set [1] has as its system H4 SL1 & SL2 neuroglioma cell line. Nature of the data set: Cell model of αSyn aggregate formation (phospho-S129 αSyn staining, ARRAYSCAN). Particulars: 100 μM and 150 μM, 45 hours. As to the method:
Next, 583854 was tested for impact on αSyn aggregation in a cell model of αSyn aggregate formation. Split Gaussian luciferase tagged αSyn overexpression was induced in the H4 SL1 & SL2 neuroglioma cell line by tetracycline addition (Moussaud, S., et al. (2015)). αSyn aggregates were visualized by staining fixed (4% PFA) cells with the S129 phosphorylated αSyn specific antibody 11A5 at 1 μg/ml (Anderson, J. P. et al. (2006)) using a green fluorescently labelled secondary antibody. Nuclei were stained with a blue Hoescht nuclear dye. Uninduced cells contained no phospho-αSyn staining and induced cells contain abundant phospho-αSyn aggregates. The cells were imaged for nuclei (blue, diffuse circular staining as in the Uninduced sample)) and phospho-αSyn (green punctate staining) on an ARRAYSCAN automated imaging platform (FIG. 23A), αSyn aggregates were quantitated using the ARRAYSCAN spot-detector algorithm. Cells were induced for αSyn by tetracycline addition and 583854 was added 3 to 4 hours later. At 48 hours after tetracycline addition the cells are washed in PBS and […] with 4% PFA.

Data set [2] concerns the target αSyn (Homo sapiens, UniProt P37840). The experiment in a line: Cellular oligomerization assay (split Gaussia luciferase complementation in H4 cells). To be noted: maximal concentrations not showing toxicity, 0.3% DMSO. The method, then: H4 neuroglioma cells (HTB-148; ATCC) were passaged in DME containing 10% fetal calf serum (FCS). They were plated into 10 cm dishes at 7.5×10^5 cells per dish and the following day transfected with DNA and Fugene (Promega, Madison, WI) at a ratio of 3:1 with 7 μg each of Syn-Luc1 (S1) and Syn-Luc2 (S2) plasmids, which are also referred to as syn-hGluc(1) and syn-hGLuc(2) respectively (see Outeiro, T. F. et al. Plos One 3, e1867, incorporated herein by reference in entirety) and 3 μg of red firefly expressing plasmid (pCMV-Red firefly Luc, ThermoFisher, Waltham, MA) per dish according to the manufacturer's directions. S1 and S2 plasmids express αSyn containing split Gaussia luciferase with either the N-terminal fragment (S1) or C-terminal fragment (S2) attached to the C-terminus of αSyn. After 24 hours, the DNA containing media was removed and cells were fed fresh DME media containing 10% FCS. […] Gaussia luciferase activity was measured in the dark 0.1 sec after injection of 100 μl/well of […] coelenterazine, substrate (NanoLight, Pinetop, AZ) using a 2 sec integration on a Veritas Microplate Luminometer (Promega, Madison, WI). The cells were subsequently assayed for red Firefly activity using the ONE-Glo™ Luciferase Assay System kit (Promega, Madison, WI) on a Spectramax M5 (Molecular Devices, San Jose, CA) plate reader as a normalization measure. […]

Data set [3] concerns primary rat embryonic midbrain neurons. The experiment in a line: Toxicity to primary midbrain dopaminergic neurons. Particulars: compound alone, 60 μM. As to the method: Primary midbrain cultures were prepared and dopaminergic neuronal viability in the presence and absence of αSyn was assessed as previously described and repeated herein. Primary midbrain cultures were prepared from embryonic day 17 embryos of Sprague-Dawley rats using methods reviewed and approved by the Purdue Animal Care and Use Committee as described previously. After dissection, the cells were plated into a poly-L-lysine-treated 48-well plate at a density of 163,500 cells per well. Four days later, the cells were treated with cytosine arabinofuranoside (AraC) (20 μM) for 48 hours to inhibit the growth of glial cells. The cultures were used for measurements of dopaminergic neuron viability at 7 days in vitro. […] In order to determine the viability of dopaminergic neurons, MAP2- and TH-positive neurons were counted in 10 to 15 randomly chosen observation fields in a blinded manner using a Nikon TE2000-U inverted fluorescence microscope (Nikon Instruments, Melville NY) with a 20× objective. In the control conditions, and in conditions where the compound was neuroprotective, typically 500 to 1,300 MAP2-positive neurons were counted, a range that corresponds to 20 to 50 TH-positive neurons. The data were expressed as the ratio of the TH-positive neurons to the MAP2-positive neurons. […]

With `CNC(=O)c1cc(O)ccc1O` [Compound 583854, 2,5-dihydroxy-N-methylbenzamide], the “impact on αSyn aggregates (phospho-αSyn)” value in data set [1] was “reduced αSyn aggregates”.

As for `CNC(=O)c1cc(O)ccc1N` [Compound 576755, 2-amino-5-hydroxy-N-methylbenzamide], the “impact on cellular αSyn oligomerization” value in data set [2] is “reproducibly reduced cellular oligomers; also recorded: reduces αSyn oligomerization”. Also, the “toxic effect on primary dopaminergic neurons” value in data set [3] is listed as “no detectable toxic effect; also recorded: not toxic”.
